Key:
Sommerweizen = assay: Field test of gametocidal activity (sterilisation of anthers), spring wheat; assay type: in vivo; conditions: V. Periode der Organogenese
Source text: (§1) Die gametozide Aktivitat der erfindungsgemäßen Sterilisationsmittel war im Feldversuch in verschiedenen bodenklimatischen Zonen mit Teilstücken von 10 m^2 Größe in drei- bis viermaliger Wiederholung festgestellt. Jedes Sterilisationsmittel wurde mindenstens 5 Jahre lang geprüft.
(§2) Die Entwicklung der Perioden der Organogenese wird zytologisch überwacht. Die Behandlung von Pflanzen mit dem Sterilisationsmittel erfolgt am Anfang der fünften Periode der Organogenese nach Kupermann.
(§3) Mit dem Ährenschieben verwirklicht man die Isolierung von Hauptähren und anderen Stockwerken in Pergamentbeuteln. Bei Weizen und Tritikale werden Einzelisolatoren benutzt. Bei Roggen schließt man je Ähre 5 bis 7 verschiedene nebeneinander befindliche Pflanzen unter einen gemeinsamen Isolator ein. Bei Hierse wird jede Rispe getrennt isoliert. Der Sterilitätsprozentsatz (X) für Weizen, Roggen, Tritikale und Hirse wird nach der Formel [formula] ermittelt.
(§4) Die Kornzahl in nicht isolierten Ähren von Kontrollpflanzen wird bedingt für 100 % Ansetzen bei freier Bestäubung angenommen.
(§5) Um zuverlässige Angaben zu erhalten, verwendet man 20 bis 25 Isolatoren jeder Wiederholung für Weizen und Tritikale, 10 .bis 15 Isolatoren jeder Wiederholung für Roggen und Hirse.
Pflanzen des Sommerweizens Sorte Moskowskaja 35 werden in der V. Periode der Organogenese (nach Kupermann) mit 1%iger wäßriger Emulsion von δ, δ' -Thiodivaleriansäure, Natriumsalz der δ, δ' -Thiodivaleriansäure, δ, δ'--Sulfonyldivaleriansäure, Natriumsalz der d, δ' -Sulfonyldivaleriansäure, Kaliumsalz der δ, δ' -Sulfornyldivaleriansäure, Bis (die-n-butyläther) der δ, δ' -Thiodivaleriansäure, 4-Karboxybutyldezylsulfid, Bis(2-äthylhexyläther) der δ, δ' -Thiodivaleriansäure behandelt. Die Emulsion enthält 0,1 Masse% Kalziumalkylbenzolsulfonat mit 12 bis 14 Kohlenstoffatomen und 0,01 Masse% Dimethylsulfoxid. Der Verbrauch an Präparat beträgt 6 kg/ha. Als Kontrolle dienen Pflanzen, behandelt mit einem Verdünner ohne Sterilisationsmittel. Die Prüfergebnisse sind in der Tabelle 4 angegeben. […] Periode der Organogenese erhalten.
(§6) Pflanzen des Sommerweizens Sorte Rodina werden in der V. Periode der Organogenese (nach Kupermann) mit l%iger wäßriger Emulsion von δ, δ' -Sulfornyldivaleriansäure, 4-Karboxybutyldezylsulfid, Bis(2-äthylhexyläther) der δ, δ' -Thiodivaleriansäure behandelt. Die Emulsion enthält 0,1 Masse% Kalziumalkylbenzolsulfonat mit 12 bis 14 Kohlenstoffatomen und 0,01 Masse% Tetrahydrofuran. Der Verbrauch an Präparat beträgt 6 kg/ha. Als Kontrolle dienen Pflanzen, behandelt mit einem Verdünner ohne Sterilisationsmittel. Die Prüfergebnisse sind in der Tabelle 5 angegeben. […] Periode der Organogenese erhalten.
Pflanzen des Sommerwizens Sorte Charkowskaja 9 werden in der V. Periode der Organogenese (nach Kupermann.) mit 1%iger waßriger Emulsion von Bis(di-n-butyläther) der δ, δ' -Thiodivaleriansäure, Bis(2-äthylhexyläther) der δ, δ' -Thiodivaleriansäure behandelt. Die Emulsion enthält 0,1 Masse% Kalziumalkylbenzolsulfonat mit 12 bis 14 Kohlenstoffatomen und 0,01 Masse% Äthylenglykol. Der Verbrauch an Präparat beträgt 8 kg/ha. Als Kontrolle dienen Pflanzen, behandelt mit einem Verdünner ohne Sterilisationsmittel. Die Prüfergebnisse sind in der Tabelle 6 angegeben. […] Periode der Organogenese erhalten.
as §6, with “Botanitscheskaja 4” for “Rodina”, “1%iger” for “l%iger”, “von Natriumsatz der” for “von”, “--Thiodivaleriansäure, Bis(di-n-butyläther) der δ, δ' -Thiodiväleriansäure,” for “-Sulfornyldivaleriansäure,”, “Dodezylsulfat.” for “Tetrahydrofuran.”, “7” for “5”

Winterweizen = assay: Field test of gametocidal activity (sterilisation of anthers), winter wheat; assay type: in vivo; conditions: V. Periode der Organogenese, 2%ige wäßrige Emulsion
Source text: as §1, §2, §3, §4, §5
Pflanzen des Winterweizens Sorte Mironowskaja 808 werden in der V. Periode der Organogenese durch Zerstäubung der 2%igen wäßrigen Emulsion der δ, δ' -Thiodivaleriansäure mit Hilfe einer Rückenspritze behandelt. Als Emulgiermittel wird 0,1 Masse% Kalziumalkylbenzalsulfonat mit 12 bis 14 Kohlenstoffatomen hinzugefügt. Als Adjuvans führt man in die Emulsion 0,01 Masse% Dimethylsulfoxid ein. Der Verbrauch an Präparat beträgt 20 kg/ha. Als Kontrolle dienen Pflanzen, behandelt mit einem Verdünner ohne Sterilisationsmittel. Die Ergebnisse sind in der Tabelle 1 angegeben. […] Periode der Organogenese erhalten.
Der Prozeß erfolgt analog zu dem im Beispiel 1 bescnriebenen. Als Sterilisationsmittel benutzt man 2%ige wäßrige Emulsion von Natriumsalz der δ, δ'-Thiodivaleriansäure, δ, δ' -Sulfonyldivaleriansäure, Natriumsalz der δ, δ' -Sulfonyldivaleriansäure, Kaliumsalz der δ, δ'--Sulfonyldivaleriansäure, Bis(di-n-butyläther) der δ, δ'--Thiodivaleriansäure, 4-Karboxybutyldezylsulfid bzw.
Pflanzen des Winterweizens Sorte Korall werden in der V. Periode der Organogenese (nach Kupermann) mit 2%iger wäßriger Emulsion von Bis(2-äthylhexyläther) der δ, δ' --Thiodivaleriansäure, 4-Karboxybutyldezylsulfid bzw. Bis(di--n-butyläther) der δ, δ' -Thiodivalerianqäure behandelt. Die Emulsion enthält 0,1 Masse% Kalziumalkylbenzolsulfonat mit 12 bis 14 Kohlenstoffatomen und 0,01 Masse% Dodezylsulfat. Der Verbrauch an Präparat beträgt 12 kg/ha. Als Kontrolle dienen Pflanzen, behandelt mit einem Verdünner ohne Sterilisationsmittel. Die Prüfergebnisse sind in der Tabelle 2 angegeben.
Pflanzen des Winterweizens Gordeiforme 12303 werden in der V. Periode der Organogenese (nach Kupermann) mit 2%iger wäßriger Emulsion von 4-Karboxybutyldezylsulfid, Bis(2-äthylhexyläther) der δ, δ' -Thiodivaleriansäure, δ, δ' -Sulfonyldivaleriansäure behandelt. Die Emulsion enthält als Emulgiermittel 0,1 Masse% Kalziumalkylbenzolsulfonat mit 12 bis 14 Kohlenstoffatomen und 0,01 Masse% Dimethylformamid. Der Verbrauch an Präparat beträgt 16 kg/ha. Als Kontrolle dienen Pflanzen, behandelt mit einem Verdünner ohne Sterilisationsmittel.

[1] = Sorte Botanitscheskaja 4, 1%ige wäßrige Emulsion, 6 kg/ha
[2] = Sorte Moskowskaja 35, 1%ige wäßrige Emulsion, 6 kg/ha
[3] = Sorte Mironowskaja 808, 20 kg/ha
[4] = Sorte Rodina, 1%ige wäßrige Emulsion, 6 kg/ha
[5] = Sorte Charkowskaja 9, 1%ige Emulsion, 8 kg/ha

## CCCCCCCCCCSCCCCC(=O)O [Beispiel 30, 4-Karboxybutyldezylsulfid]
Sommerweizen; [1]
  Anzahl von Körnern der Ähre bei freier Bestäubung: 32,8
  Anzahl von Körnern der Ähre im Isolator: 0,0
  Prozentsatz der Sterilität: 100,0%
  Prozentsatz des Ansetzens von Körnern bei freier Bestäubung: 81,6%

## O=C([O-])CCCCS(=O)(=O)CCCCC(=O)[O-].[K+].[K+] [Beispiel 19, Kaliumsalz der δ, δ' -Sulfornyldivaleriansäure]
Sommerweizen; [2]
  Anzahl von Körnern der Ähre bei freier Bestäubung: 30,5
  Anzahl von Körnern der Ähre im Isolator: 0,3
  Prozentsatz der Sterilität: 99,0%
  Prozentsatz des Ansetzens von Körnern bei freier Bestäubung: 95,6%

## O=C([O-])CCCCS(=O)(=O)CCCCC(=O)[O-].[K+].[K+] [Beispiel 5, Kaliumsalz der δ, δ'--Sulfonyldivaleriansäure]
Winterweizen; [3]
  Anzahl von Körnern der Ähre bei freier Bestäubung: 40,7
  Anzahl von Körnern der Ähre im Isolator: 0,1
  Prozentsatz der Sterilität: 99,8%
  Prozentsatz des Ansetzens von Körnern bei freier Bestäubung: 98,8%

## O=C(O)CCCCS(=O)(=O)CCCCC(=O)O [Beispiel 14, δ, δ' -Sulfonyldivaleriansäure]
Winterweizen; Gordeiforme 12303, 16 kg/ha
  Anzahl von Körnern der Ähre bei freier Bestäubung: 23,6
  Anzahl von Körnern der Ähre im Isolator: 0,1
  Prozentsatz der Sterilität: 99,7%
  Prozentsatz des Ansetzens von Körnern bei freier Bestäubung: 81,1%

## O=C(O)CCCCS(=O)(=O)CCCCC(=O)O [Beispiel 23, δ, δ' -Sulfornyldivaleriansäure]
Sommerweizen; [4]
  Anzahl von Körnern der Ähre bei freier Bestäubung: 36,1
  Anzahl von Körnern der Ähre im Isolator: 0,0
  Prozentsatz der Sterilität: 100,0%
  Prozentsatz des Ansetzens von Körnern bei freier Bestaubung: 96,3%

## O=C(O)CCCCSCCCCC(=O)O [Beispiel 15, δ, δ' -Thiodivaleriansäure]
Sommerweizen; [2]
  Anzahl von Körnern der Ähre bei freier Bestäubung: 31,7
  Anzahl von Körnern der Ähre im Isolator: 0,9
  Prozentsatz der Sterilität: 97,0%
  Prozentsatz des Ansetzens von Körnern bei freier Bestäubung: 98,3%

## Bis (die-n-butyläther) der δ, δ' -Thiodivaleriansäure [Beispiel 20]
Sommerweizen; [2]
  Anzahl von Körnern der Ähre bei freier Bestäubung: 28,7
  Anzahl von Körnern der Ähre im Isolator: 0,0
  Prozentsatz der Sterilität: 100,0%
  Prozentsatz des Ansetzens von Körnern bei freier Bestäubung: 89,9%

## CCCCC(CC)COC(=O)CCCCSCCCCC(=O)OCC(CC)CCCC (stereo not drawn) [Beispiel 31, Bis(2-äthylhexyläther) der δ, δ' -Thiodivaleriansäure]
Sommerweizen; [1]
  Anzahl von Körnern der Ähre bei freier Bestäubung: 33,4
  Anzahl von Körnern der Ähre im Isolator: 0,0
  Prozentsatz der Sterilität: 100,0%
  Prozentsatz des Ansetzens von Körnern bei freier Bestäubung: 83,1%

## CCCCC(CC)COC(=O)CCCCSCCCCC(=O)OCC(CC)CCCC (stereo not drawn) [Beispiel 27, Bis(2-äthylhexyläther) der δ, δ' -Thiodivaleriansäure]
Sommerweizen; [5]
  Anzahl von Körnern der Ähre bei freier Bestäubung: 28,6
  Anzahl von Körnern der Ähre im Isolator: 0,0
  Prozentsatz der Sterilität: 100,0%
  Prozentsatz des Ansetzens von Körnern bei freier Bestäubung: 88,9%
